The results in this text go back to patent US7297714B2, “Inhibitors of cathepsin S” (IRM LLC, priority 2003, dated 2007).

What all share (assay type): biochemical
The target of one test is Cathepsin S (Homo sapiens, UniProt P25774). Nature of the test: Cathepsin S inhibition assay (fluorogenic peptide substrate). Particulars: Cathepsin S inhibition constant; pH5.5; read-out: Ki Cat. S. The text has this: “Inhibition constant”, Ki, is the dissociation constant of the enzyme-inhibitor complex, or the reciprocal of the binding affinity of the inhibitor to the enzyme. For classical inhibition the value of Ki is much greater than the enzyme concentration and the Ki can be measured by monitoring the rate of reaction for a competitive substrate at multiple inhibitor concentrations. The inhibited rates are then fit by nonlinear regression to the following equation: […]
Cathepsin S, sequence (P25774 115-331, species assumed): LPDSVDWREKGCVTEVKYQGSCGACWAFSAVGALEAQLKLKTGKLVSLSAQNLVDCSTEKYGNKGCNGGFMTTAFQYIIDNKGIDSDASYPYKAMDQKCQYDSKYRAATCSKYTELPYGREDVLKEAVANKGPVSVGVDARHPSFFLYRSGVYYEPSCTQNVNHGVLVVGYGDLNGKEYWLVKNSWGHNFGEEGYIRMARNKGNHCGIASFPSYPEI
The assumption being made for the classical inhibition described above is that the free inhibitor concentration is equal to the total inhibitor concentration. For inhibitors that have Ki's that are approximately equal to the enzyme concentration [E], the assumption that the free inhibitor concentration is equal to the total inhibitor concentration is no longer valid and an alternative equation has to be fit for determination of the apparent inhibition constant, Ki^app using described methods (Kuzmic, P., K. C. Elrod, et al., Anal Biochem 2000, 286(1), 45-50):
(§1) The optimal substrate for cathepsin S, acetyl-histidine-proline-valine-lysine-amino carbamoyl coumarin, was identified from screening a combinatorial library of fluorogenic peptide substrates (Harris, J. L., B. J. Backes, et al., Proc Natl Acad Sci U S A 2000, 97(14), 7754-9). Kinetic measurements are performed in a total reaction volume of 30 μl in 384-well microtiter plates. Cathepsin S, at a final concentration of 0.3-3 nM (active site), is incubated with the compounds at twelve varying concentrations in a buffer containing 100 mM NaAc (pH5.5), 1 mM EDTA, 100 mM NaCl, 0.01% Brij-35 for 20 minutes at room temperature. Control reactions in the absence of inhibitor are performed in replicates of 24. The reactions are initiated by adding the substrate, acetyl-histidine-proline-valine-lysine-amino carbamoyl coumarin, to a final concentration of 50 μM. The rate of substrate hydrolysis is measured by monitoring the increase in fluorescence at an excitation wavelength of 380 nm and an emission wavelength of 450 nm that results from cleavage of the aniline bond in the substrate by the enzyme. The apparent inhibition constants for the compounds are determined from the enzyme progress curves (Kuzmic, P., K. C. Elrod, et al., Anal Biochem 2000, 286(1), 45-50) and are then used to calculate the inhibition constants for competitive inhibitors.

A further test has as its target Caspase 8 (Homo sapiens, UniProt Q14790). Briefly: Inhibition Assay for Caspase 8. Particulars: Caspase-8 inhibition constant; pH 7.4; read-out: Ki Cas-8. The protocol:
The widely used substrate for caspase 8, […]-amino carbamoyl coumarin, was used. Kinetic measurements are performed in a total reaction volume of 30 μl in 384-well microtiter plates. Caspase 8, at a final concentration of 0.2-1 nM (active site), is incubated with the compounds at twelve varying concentrations in a buffer containing 20 mM Hepes (pH 7.4), 1 mM EDTA, 100 mM NaCl, 0.1% CHAPS, 10% sucrose, 10 mM DTT for 20 minutes at room temperature. Control reactions in the absence of inhibitor are performed in replicates of 12. The reactions are initiated by adding the substrate to a final concentration of 2 μM. The rate of substrate hydrolysis is measured by monitoring the increase in fluorescence at an excitation wavelength of 380 nm and an emission wavelength of 450 nm that results from cleavage of the aniline bond in the substrate by the enzyme. The apparent inhibition constants for the compounds are determined from the enzyme progress curves (Kuzmic, Elrod et al. 2000) and are then used to calculate the inhibition constants for competitive inhibitors (Km=25.7 μM).

A further test concerns the target T1, Cathepsin K (Homo sapiens, UniProt P43235).
T1 sequence (P43235 115-329): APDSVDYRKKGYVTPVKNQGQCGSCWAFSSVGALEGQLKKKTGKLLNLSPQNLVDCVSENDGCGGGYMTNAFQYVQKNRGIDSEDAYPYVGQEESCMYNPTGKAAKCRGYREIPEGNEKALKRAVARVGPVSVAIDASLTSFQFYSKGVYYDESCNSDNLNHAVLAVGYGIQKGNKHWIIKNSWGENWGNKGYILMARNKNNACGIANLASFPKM
Briefly: Cathepsin K inhibition assay, selectivity for cathepsin S over cathepsin K. Particulars: ratio of cathepsin K inhibition constant to cathepsin S inhibition constant. The protocol:
as §1, with “cathepsin K, acetyl-lysine-histidine-proline-lysine-amino” for “cathepsin S, acetyl-histidine-proline-valine-lysine-amino”, “Sci USA” for “Sci U S A”, “Cathepsin K,” for “Cathepsin S,”, “of 3.5” for “of 0.3-3”, “substrate, acetyl-lysine-histidine-proline-lysine-amino” for “substrate, acetyl-histidine-proline-valine-lysine-amino”, “of 40” for “of 50”
Selectivity for cathepsin S in the presence of cathepsin isozymes was determined by the ratio of the cathepsin isozyme inhibition constant of a compound of the present invention to the cathepsin S inhibition constant of the same compound. Preferred compounds of the present invention selective for cathepsin S have ratios of greater than 10. More preferred compounds of the present invention selective for cathepsin S have ratios of greater than 100. Most preferred compounds of the present invention selective for cathepsin S have ratios of greater than 1000.

For orientation: Ki means a dissociation constant, usually derived from enzyme kinetics or from competition with a known ligand.

Caspase 8, sequence (Q14790 217-374 limits assumed, species assumed): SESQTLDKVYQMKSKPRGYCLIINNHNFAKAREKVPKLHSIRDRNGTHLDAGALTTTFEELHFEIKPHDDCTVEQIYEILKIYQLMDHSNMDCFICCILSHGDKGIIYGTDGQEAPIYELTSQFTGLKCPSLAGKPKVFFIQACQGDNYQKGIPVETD
Caspase 8, sequence (Q14790 385-479 limits assumed, species assumed): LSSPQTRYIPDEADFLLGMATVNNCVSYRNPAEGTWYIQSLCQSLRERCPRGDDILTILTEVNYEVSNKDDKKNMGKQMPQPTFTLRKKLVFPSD

As to `O=C1C[C@H](NC(=O)O[C@@H](CC2CCCCC2)C(=O)N2CCOCC2)C(O)O1` (stereo partly drawn) [Example 10, (3S)-[2-cyclohexyl-(1S)-(morpholin-4-carbonyl)-ethoxycarbonylamino]-4-oxo-butyric acid], the Ki was less than 100 nM on Cathepsin S and greater than 100000 nM at Caspase 8. Besides, at Cathepsin K, the “Selectivity for Cat. S over Cat. K” value was “++ (++, >100)”.
With `O=C1C[C@H](NC(=O)[C@@H](CC(=O)N2CCOCC2)CC2CCCCC2)C(O)O1` (stereo partly drawn) [Example 6, (3S)-{(2R)-Cyclohexylmethyl-4-morpholin-4-yl-4-oxo-butyrylamino}-4-oxo-butyric acid], the Ki at Cathepsin S was less than 100 nM; on Caspase 8, greater than 10000 nM. The “Selectivity for Cat. S over Cat. K” value at Cathepsin K was “++ (++, >100)”.
With `O=C1C[C@H](NC(=O)[C@H](CC2CCCC2)NC(=O)N2CCOCC2)C(O)O1` (stereo partly drawn) [Example 2, (3S)-{3-Cyclopentyl-(2S)-[(morpholine-4-carbonyl)-amino]-propionylamino}-4-oxo-butyric acid], the Ki is less than 100 nM on Cathepsin S and greater than 10000 nM at Caspase 8. For the same compound, at Cathepsin K, the “Selectivity for Cat. S over Cat. K” value is given as “++ (++, >100)”.
As for `O=C1C[C@H](NC(=O)O[C@@H](CC2CCCC2)Cn2cnc3cc(Cl)c(Cl)cc32)C(O)O1` (stereo partly drawn) [Example 5, (3S)-[(1S)-Cyclopentylmethyl-2-(5,6-dichloro-benzoimidazol-1-yl)-ethoxycarbonylamino]-4-oxo-butyric acid], the Ki on Cathepsin S was less than 100 nM; at Caspase 8, greater than 10000 nM. On Cathepsin K, the “Selectivity for Cat. S over Cat. K” value is “+ (+, >10)”.
`O=C1C[C@H](NC(=O)[C@H](CC2CCCCC2)NS(=O)(=O)c2cccc(OC(F)(F)F)c2)C(O)O1` (stereo partly drawn) [Example 7, (3S)-[3-Cyclohexyl-(2S)-(3-trifluoromethoxy-benzenesulfonylamino)-propionylamino]-4-oxo-butyric acid]: the Ki is less than 100 nM at Cathepsin S and greater than 10000 nM on Caspase 8. Besides, the “Selectivity for Cat. S over Cat. K” value on Cathepsin K is given as “++ (++, >100)”.
With `O=C1C[C@H](NC(=O)[C@H](CC2CCCC2)NS(=O)(=O)c2cccc(OC(F)(F)F)c2)C(O)O1` (stereo partly drawn) [Example 8, (3S)-[3-Cyclopentyl-(2S)-(3-trifluoromethoxy-benzenesulfonylamino)-propionylamino]-4-oxo-butyric acid], the Ki was less than 100 nM on Cathepsin S and greater than 10000 nM on Caspase 8. Besides, the “Selectivity for Cat. S over Cat. K” value at Cathepsin K is recorded as “++ (++, >100)”.
`CC(C)(C)C[C@H](OC(=O)N[C@H]1CC(=O)OC1O)C(=O)N1CCOCC1` (stereo partly drawn) [Example 9, (3S)-[3,3-Dimethyl-(1S)-(morpholine-4-carbonyl)-butoxycarbonylamino]-4-oxo-butyric acid]: the Ki is less than 100 nM on Cathepsin S and greater than 100000 nM at Caspase 8.
In the case of `O=C1C[C@H](NC(=O)[C@H](CC2CCCCC2)OC(=O)N2CCOCC2)C(O)O1` (stereo partly drawn) [Example 3, (3S)-{3-cyclohexyl-(2S)-(morpholine-4-carbonyloxy)-propionylamino}-4-oxo-butyric acid], the results for the Ki at Cathepsin S and at Caspase 8 were less than 100 nM and greater than 10000 nM, respectively. The “Selectivity for Cat. S over Cat. K” value on Cathepsin K is recorded as “+ (+, >10)”.
Turning to `O=C1C[C@H](NC(=O)[C@H](CC2CCCC2)NC(=O)c2ccc(-c3cccc(F)c3)o2)C(O)O1` (stereo partly drawn) [Example 1, (3S)-(3-Cyclopentyl-(2S)-{[5-(3-fluoro-phenyl)-furan-2-carbonyl]-amino}-propionylamino)-4-oxo-butyric acid], the Ki on Cathepsin S was less than 100 nM; on Caspase 8 it was greater than 1000 nM. Besides, at Cathepsin K, the “Selectivity for Cat. S over Cat. K” value is recorded as “+ (+, >10)”.
Regarding `O=C[C@H](CC(=O)O)NC(=O)[C@@H](CC(=O)N1CCOCC1)CC1CCCC1` [Example 4, (3S)-[(2R)-Cyclopentylmethyl-4-morpholin-4-yl-4-oxo-butyrylamino]-4-oxo-butyric acid], the values for the Ki on Cathepsin S and at Caspase 8 were less than 100 nM and greater than 10000 nM, respectively. Moreover, the “Selectivity for Cat. S over Cat. K” value at Cathepsin K is given as “+ (+, >10)”.
